{"source": "paper PMC11865978", "about": "“Cellular Activity of CQWW Nullomer-Derived Peptides” (ACS Omega, 2025)", "system": "mitochondria, all cell lines including GCGR-NS9FB_B", "assay": "Mitotracker stain intensity in cell painting assay", "format": "cell-based, human", "conditions": "compared with Peptide 15 control", "description": "Figure S4 – Network analysis (STRING) showing protein interactions resulting from treatment with […]\n2nd shell) <10. Top ranked Gene Ontology (GO terms) for biological processes is listed (top right) with Log[False Discovery Rate] indicated.\nHigh Content Phenotypic Screening assays\nCell lines (glioma stem cell lines and normal foetal neural stem cells) were seeded on laminin (10 µg/mL) coated 384-well plates (Greiner Bio-One, 781091) at 1,000 cells/well and incubated overnight at 37 °C and 5% CO2. Aqueous peptide solutions (10 mM) were further diluted to 1 mM in water containing 10 % glycerol and 0.01 % TX-100. […]\nBSA/PBS. […] The data was then analyzed using a custom CellProfiler software pipeline using the University of Edinburgh high performance computing cluster. Dose response plots were calculated using HC StratomineR (corelifeanalytics.com). Nuclei count data was analyzed separately to generate cell survival metrics (normalized to aqueous glycerol/TX -100 control).\nDose response curves were fitted and IC50 values calculated using Prism GraphPad (graphpad.com). […]\nFigure S5 – The CellProfiler-derived feature “MedianNucleiIntensityMADIntensityW5”, reading out mitotracker stain intensity observed in cell nuclei after treatment with the Peptide 2 nullomer (blue) and Peptide 15 (control). […]"}
{"substance": "H-RRRRRCQWW-NH2 [Peptide 2]", "values": [{"measurement": "mitotracker stain intensity in cell nuclei (MedianNucleiIntensityMADIntensityW5)", "value": "reduce mitotracker intensity in a dose dependent manner"}, {"measurement": "mitotracker stain intensity in cells (MedianCellsIntensityMeanIntensityW5)", "value": "reduce mitotracker intensity in a dose dependent manner"}]}
